Results: patent US20110155157A1, “CIGARETTE FILTER CONTAINING ROSEMARY EXTRACT AND A METHOD OF REDUCING DNA DAMAGE CAUSED BY HARMFUL AGENTS IN CIGARETTE SMOKE BY USE OF SAID FILTER” (priority 2006, published 2011)

Tested on: calf thymus DNA
Assay: BPDE-dG adduct formation by cigarette smoke solution in a cell-free system with DNA and (+)-BP-7,8-diol

With Catalase as the substance, how does the “% BPDE-dG relative to standard CS” value (CSS diluted 1:19 with PBS pH 7.4, (+) BaP-7,8-diol, room temperature 2 h) read?
Its value is 12%.

And the “effect on the (−)-anti-BPDE-dG produced” value (in words)?
The value was “inhibited the formation of the adduct”.
